Results as given in US9849212B2, “Implants for inducing soft and hard tissue integration” (NUMAT BIOMEDICAL S.L., priority 2013, dated 2017).

Experiments:
Type in all cases: physicochemical
[1] = Biomolecule release by UV-vis spectrometry after 24 h incubation in water; settings: covalent linking via APTES, water pH 7.5, 37° C.
Protocol: The biomolecule release from functionalized implants after 24 h incubation in water at pH 7.5 and 37° C. was determined by UV-Vis spectroscopy. Implants were placed in a 96 well plate and 200 μl of water at pH 7.5 were added to each well. Samples were incubated at 37° C. during 24 h. Then, a 150 μl aliquot was withdrawn and the absorbance (λmax taxifolin=290 nm, λmax quercitrin=350 nm) was measured using a Biotek UV-vis plate reader spectrophotometer. Two sample replicates were measured.

[2] = Flavonoid release profile by UV-Vis spectroscopy, simulating HGF culture media changes; settings: water pH 7.5, 37° C.
Protocol: (§1) The flavonoid release profile from coated surfaces in water media, simulating physiologic conditions (pH 7.5, 37° C.) was measured by UV-Vis spectroscopy. Implants were placed in a 96 well plate and 200 μl of water at pH 7.5 were added to each well. […] Each time, a 150 μl aliquot was withdrawn and the absorbance (λTaxifolin=290 nm, λQuercitrin=350 nm) was measured in a 96 well Elisa plate using a Biotek UV-vis plate reader spectrophotometer. The concentration of flavonoid was calculated from interpolation of data in flavonoid standard calibration curves. Two replicates were measured for each sample. Passivated Ti substrates were used as blank samples for drop casted implants. Silanized Ti substrates were used as blank for covalently linked samples.

[3] = Flavonoid release profile by UV-Vis spectroscopy, simulating hUC-MSCs culture media changes; settings: water pH 7.5, 37° C.
Protocol: as §1

[4] = Schiff base, not reduced (experiment FL14)

C μM, 24 h (release of flavonoid to water media) ([1]; Ti pretreat. UV, reduction step No (Schiff base)): 5.06 ± 0.59 µM
C μM, 24 h (release of flavonoid to water media) ([1]; Ti pretreat. UV, reduction step Yes (reduced Schiff base)): No det.
C μM, 24 h (release of flavonoid to water media) ([1]; Ti pretreat. passivation, reduction step No (Schiff base)): 10.22 ± 1.88 µM
C μM, 24 h (release of flavonoid to water media) ([1]; Ti pretreat. passivation, reduction step Yes (reduced Schiff base)): No det.
cumulative release at day one [2, 4]: 12.4 ± 4.0 nmol
released amount from 1 to 14 days [2, 4]: not significant
flavonoid released to the media after 1 h of incubation ([2]; covalently linked by Schiff base formation, not reduced (experiment FL14)): 7.9 ± 2.7 nmol
completeness of release at day 1 ([2]; drop casted substrates (experiment FL13), 6 nmol/disk taxifolin): almost complete
flavonoid released to the media after 1 h of incubation ([2]; drop casted substrates (experiment FL13), initial 6 nmol/disk taxifolin, 100 nmol/disk quercitrin): ~3.2 ± 0.4 nmol
total amount released after 14 days ([3]; Schiff base, not reduced (experiment FL17)): 2.6 ± 0.2 nmol
total amount released to media ([3]; drop casted substrates (experiment FL16), initial 20 nmol/disk taxifolin, 50 nmol/disk quercitrin, up to 14 days): 19.7 ± 0.7 nmol
SMILES: O=C1c2c(O)cc(O)cc2O[C@H](c2ccc(O)c(O)c2)[C@H]1O [TX, taxifolin]
flavonoid detected in the media ([2]; reduced Schiff base surfaces (experiment FL15), up to 14 days): No taxifolin neither quercitrin were detected
flavonoid detected in the media ([3]; reduced Schiff base surfaces (experiment FL18), up to 14 days): No taxifolin neither quercitrin were detected
